In patent US10501412B2, “Conjugates of cell binding molecules with cytotoxic agents” (HANGZHOU DAC BIOTECH CO., LTD., priority 2012, dated 2019):

Conditions: generated by hydrolysis of Phe and Tyr in the animal blood circulation

## Mep-Ile-Tuv [Mep-Ile-Tuv moiety]
  fold less potency than tubulysin A and D: over 200 fold
